Results from patent US12564638B2 (SHANGHAITECH UNIVERSITY, priority 2019, dated 2026).
Read-outs that look alike come from different tables or passages of the source.

Tested on: HCC827 cells (EGFR Exon19 del, non-small cell lung cancer cells)
Experiment: Cell viability assay (WST/CCK8), HCC827 cells
Type: cell-based
Details: 72 hours; for IC50: Homo sapiens, HCC827, 72 h, HCC827 (Exon19 Del), read-out: IC50 (half inhibitory concentration)
Source text: The cell lines with abnormal EGFR expression used are as follows: • HCC827 cells (EGFR Exon19 del, non-small cell lung cancer cells); • PC9 cells (EGFR Exon 19 del, non-small cell lung cancer cells); • PC9BracA1 (EGFR Exon 19 del+T790M, non-small cell lung cancer cells) • H1975 (EGFR Exon T790M+L858R mutation, non-small cell lung cancer cell line) • BT474 cells (HER2 positive breast cancer cells)
All of the half inhibitory concentrations (IC50) of these compounds of the present invention were determined with WST reagent from Fuyuan Biotec Company. The specific experiment procedures are as follows: Cancer cells were planted in 96-well-plate at the density of 3 000 cells per well with 100 μL RPMI1640 completed culture medium. In the next day, compounds with indicated concentrations were added to the cells, DMSO was used as the negative control and the EGFR TKIs were used to treat cells as the positive groups. After 72 hours drug treatment, cell viability was measured by using the WST reagent following the instructions.
The cells were treated with the gradient concentration of these compounds (the maximum concentration: 10 μM; 3-fold dilution ratio, 10 concentration gradients) for 72 hours and then incubated with the WST (CCK8) reagent to determine the cell viability.

[1] = Table 4, gefitinib and sapitinib-based compounds, WST

| Structure (SMILES) | IC50 (WST (CCK8)) | IC50 [1] | cell proliferation inhibition (in words) (HCC827 cells) |
| --- | --- | --- | --- |
| COc1cc2ncnc(Nc3ccc(F)c(Cl)c3)c2cc1NC(=O)/C=C/CN1CCN(C(=O)COCCOCCOCCOCCOCCSc2cccc3c2C(=O)N(C2CCC(=O)NC2=O)C3=O)CC1 (stereo not drawn) [SIAIS262008, (E)-N-(4-((3-chloro-4-fluorophenyl)amino)-7-methoxyquinazolin-6-yl)-4-(4-(17-((2-(2,6-dioxopiperidin-3-yl)-1,3-dioxoisoindolin-4-yl)thio)-3,6,9,12,15-pentaoxaheptadecanoyl)piperazin-1-yl)but-2-enamide] | 46.6 nM | – | – |
| COc1cc2ncnc(Nc3ccc(F)c(Cl)c3)c2cc1NC(=O)/C=C/CN1CCC(N2CCN(CCCCCNc3cccc4c3C(=O)N(C3CCC(=O)NC3=O)C4=O)CC2)CC1 (stereo not drawn) [SIAIS262071, (E)-N-(4-((3-chloro-4-fluorophenyl)amino)-7-methoxyquinazolin-6-yl)-4-(4-(4-(5-((2-(2,6-dioxopiperidin-3-yl)-1,3-dioxoisoindolin-4-yl)amino)pentyl)piperazin-1-yl)piperidin-1-yl)but-2-enamide] | 5.9 nM | – | – |
| COc1cc2ncnc(Nc3ccc(F)c(Cl)c3)c2cc1NC(=O)/C=C/CN1CCC(N2CCN(CCCCCCNc3cccc4c3C(=O)N(C3CCC(=O)NC3=O)C4=O)CC2)CC1 (stereo not drawn) [SIAIS262072, (E)-N-(4-((3-chloro-4-fluorophenyl)amino)-7-methoxyquinazolin-6-yl)-4-(4-(4-(6-((2-(2,6-dioxopiperidin-3-yl)-1,3-dioxoisoindolin-4-yl)amino)hexyl)piperazin-1-yl)piperidin-1-yl)but-2-enamide] | 16.9 nM | – | – |
| COc1cc2ncnc(Nc3ccc(F)c(Cl)c3)c2cc1OCCCN1CCC(N2CCNCC2)CC1 [SIAIS262080, N-(3-chloro-4-fluorophenyl)-7-methoxy-6-(3-(4-(piperazin-1-yl)piperidin-1-yl)propoxy)quinazolin-4-amine] | – | 41 nM | – |
| COc1cc2ncnc(Nc3ccc(F)c(Cl)c3)c2cc1OCCCN1CCC(N2CCN(C(=O)CSc3cccc4c3CN(C3CCC(=O)NC3=O)C4=O)CC2)CC1 (stereo not drawn) [SIAIS262085, 3-(4-((2-(4-(1-(3-((4-((3-chloro-4-fluorophenyl)amino)-7-methoxyquinazolin-6-yl)oxy)propyl)piperidin-4-yl)piperazin-1-yl)-2-oxoethyl)thio)-1-oxoisoindolin-2-yl)piperidine-2,6-dione] | – | 145 nM | – |
| COc1cc2ncnc(Nc3ccc(F)c(Cl)c3)c2cc1OCCCN1CCC(N2CCN(C(=O)CCCCSc3cccc4c3CN(C3CCC(=O)NC3=O)C4=O)CC2)CC1 (stereo not drawn) [SIAIS262086, 3-(4-((5-(4-(1-(3-((4-((3-chloro-4-fluorophenyl)amino)-7-methoxyquinazolin-6-yl)oxy)propyl)piperidin-4-yl)piperazin-1-yl)-5-oxopentyl)thio)-1-oxoisoindolin-2-yl)piperidine-2,6-dione] | – | 59 nM | – |
| COc1cc2ncnc(Nc3ccc(F)c(Cl)c3)c2cc1OCCCN1CCC(N2CCN(C(=O)CCCCCSc3cccc4c3CN(C3CCC(=O)NC3=O)C4=O)CC2)CC1 (stereo not drawn) [SIAIS262087, 3-(4-((6-(4-(1-(3-((4-((3-chloro-4-fluorophenyl)amino)-7-methoxyquinazolin-6-yl)oxy)propyl)piperidin-4-yl)piperazin-1-yl)-6-oxohexyl)thio)-1-oxoisoindolin-2-yl)piperidine-2,6-dione] | – | 31 nM | – |
| COc1cc2ncnc(Nc3ccc(F)c(Cl)c3)c2cc1OCCCN1CCC(N2CCN(CCCC#Cc3cccc4c3CN(C3CCC(=O)NC3=O)C4=O)CC2)CC1 (stereo not drawn) [SIAIS262089, 3-(4-(5-(4-(1-(3-((4-((3-chloro-4-fluorophenyl)amino)-7-methoxyquinazolin-6-yl)oxy)propyl)piperidin-4-yl)piperazin-1-yl)pent-1-yn-1-yl)-1-oxoisoindolin-2-yl)piperidine-2,6-dione] | – | 102 nM | – |
| COc1cc2ncnc(Nc3ccc(F)c(Cl)c3)c2cc1OCCCN1CCC(N2CCN(CCCCC#Cc3cccc4c3CN(C3CCC(=O)NC3=O)C4=O)CC2)CC1 (stereo not drawn) [SIAIS262090, 3-(4-(6-(4-(1-(3-((4-((3-chloro-4-fluorophenyl)amino)-7-methoxyquinazolin-6-yl)oxy)propyl)piperidin-4-yl)piperazin-1-yl)hex-1-yn-1-yl)-1-oxoisoindolin-2-yl)piperidine-2,6-dione] | – | 47 nM | – |
| COc1cc2ncnc(Nc3ccc(F)c(Cl)c3)c2cc1OC1CCN(CC(=O)NCCCSc2cccc3c2CN(C2CCC(=O)NC2=O)C3=O)CC1 (stereo not drawn) [SIAIS293048, 2-(4-((4-((3-chloro-4-fluorophenyl)amino)-7-methoxyquinazolin-6-yl)oxy)piperidin-1-yl)-N-(3-((2-(2,6-dioxopiperidin-3-yl)-1-oxoisoindolin-4-yl)thio)propyl)acetamide] | – | 23 nM | – |
| COc1cc2ncnc(Nc3cccc(Cl)c3F)c2cc1OC1CCN(CC(=O)NCCCCCCCCSc2cccc3c2CN(C2CCC(=O)NC2=O)C3=O)CC1 (stereo not drawn) [SIAIS293070, 2-(4-((4-((3-chloro-2-fluorophenyl)amino)-7-methoxyquinazolin-6-yl)oxy)piperidin-1-yl)-N-(8-((2-(2,6-dioxopiperidin-3-yl)-1-oxoisoindolin-4-yl)thio)octyl)acetamide] | – | 14 nM | – |
| COc1cc2ncnc(Nc3ccc(F)c(Cl)c3)c2cc1NC(=O)/C=C/CN1CCC(N2CCN(CCCCCCCCCCCSc3cccc4c3CN(C3CCC(=O)NC3=O)C4=O)CC2)CC1 (stereo not drawn) [SIAIS337040, (E)-N-(4-((3-chloro-4-fluorophenyl)amino)-7-methoxyquinazolin-6-yl)-4-(4-(4-(11-((2-(2,6-dioxopiperidin-3-yl)-1-oxoisoindolin-4-yl)thio)undecyl)piperazin-1-yl)piperidin-1-yl)but-2-enamide] | 26.8 nM | – | – |

The next lines start with results.

| IC50 (WST (CCK8)) | IC50 [1] | Structure (SMILES) | cell proliferation inhibition (in words) (HCC827 cells) |
| --- | --- | --- | --- |
| – | 12 nM | COc1cc2ncnc(Nc3ccc(F)c(Cl)c3)c2cc1OC1CCN(CC(=O)NCCSc2cccc3c2CN(C2CCC(=O)NC2=O)C3=O)CC1 (stereo not drawn) [SIAIS293047, 2-(4-((4-((3-chloro-4-fluorophenyl)amino)-7-methoxyquinazolin-6-yl)oxy)piperidin-1-yl)-N-(2-((2-(2,6-dioxopiperidin-3-yl)-1-oxoisoindolin-4-yl)thio)ethyl)acetamide] | – |
| – | 2.8 nM | COc1cc2ncnc(Nc3ccc(F)c(Cl)c3)c2cc1OC1CCN(CC(=O)NCCCCSc2cccc3c2CN(C2CCC(=O)NC2=O)C3=O)CC1 (stereo not drawn) [SIAIS293049, 2-(4-((4-((3-chloro-4-fluorophenyl)amino)-7-methoxyquinazolin-6-yl)oxy)piperidin-1-yl)-N-(4-((2-(2,6-dioxopiperidin-3-yl)-1-oxoisoindolin-4-yl)thio)butyl)acetamide] | – |
| – | 1.5 nM | COc1cc2ncnc(Nc3ccc(F)c(Cl)c3)c2cc1OC1CCN(CC(=O)NCCCCCCSc2cccc3c2CN(C2CCC(=O)NC2=O)C3=O)CC1 (stereo not drawn) [SIAIS293050, 2-(4-((4-((3-chloro-4-fluorophenyl)amino)-7-methoxyquinazolin-6-yl)oxy)piperidin-1-yl)-N-(6-((2-(2,6-dioxopiperidin-3-yl)-1-oxoisoindolin-4-yl)thio)hexyl)acetamide] | – |
| – | 6.5 nM | COc1cc2ncnc(Nc3ccc(F)c(Cl)c3)c2cc1OC1CCN(CC(=O)NCCCCCCCSc2cccc3c2CN(C2CCC(=O)NC2=O)C3=O)CC1 (stereo not drawn) [SIAIS293051, 2-(4-((4-((3-chloro-4-fluorophenyl)amino)-7-methoxyquinazolin-6-yl)oxy)piperidin-1-yl)-N-(7-((2-(2,6-dioxopiperidin-3-yl)-1-oxoisoindolin-4-yl)thio)heptyl)acetamide] | – |
| – | 0.25 nM | COc1cc2ncnc(Nc3ccc(F)c(Cl)c3)c2cc1OC1CCN(CC(=O)NCCCCCCCCSc2cccc3c2CN(C2CCC(=O)NC2=O)C3=O)CC1 (stereo not drawn) [SIAIS293052, 2-(4-((4-((3-chloro-4-fluorophenyl)amino)-7-methoxyquinazolin-6-yl)oxy)piperidin-1-yl)-N-(8-((2-(2,6-dioxopiperidin-3-yl)-1-oxoisoindolin-4-yl)thio)octyl)acetamide] | – |
| – | 0.3 nM | COc1cc2ncnc(Nc3cccc(Cl)c3F)c2cc1OC1CCN(CC(=O)NCCCCSc2cccc3c2CN(C2CCC(=O)NC2=O)C3=O)CC1 (stereo not drawn) [SIAIS293067, 2-(4-((4-((3-chloro-2-fluorophenyl)amino)-7-methoxyquinazolin-6-yl)oxy)piperidin-1-yl)-N-(4-((2-(2,6-dioxopiperidin-3-yl)-1-oxoisoindolin-4-yl)thio)butyl)acetamide] | better than sapitinib on cell killing |
| – | 1.2 nM | COc1cc2ncnc(Nc3cccc(Cl)c3F)c2cc1OC1CCN(CC(=O)NCCCCCCSc2cccc3c2CN(C2CCC(=O)NC2=O)C3=O)CC1 (stereo not drawn) [SIAIS293068, 2-(4-((4-((3-chloro-2-fluorophenyl)amino)-7-methoxyquinazolin-6-yl)oxy)piperidin-1-yl)-N-(6-((2-(2,6-dioxopiperidin-3-yl)-1-oxoisoindolin-4-yl)thio)hexyl)acetamide] | – |
| – | 9.4 nM | COc1cc2ncnc(Nc3cccc(Cl)c3F)c2cc1OC1CCN(CC(=O)NCCCCCCCSc2cccc3c2CN(C2CCC(=O)NC2=O)C3=O)CC1 (stereo not drawn) [SIAIS293069, 2-(4-((4-((3-chloro-2-fluorophenyl)amino)-7-methoxyquinazolin-6-yl)oxy)piperidin-1-yl)-N-(7-((2-(2,6-dioxopiperidin-3-yl)-1-oxoisoindolin-4-yl)thio)heptyl)acetamide] | – |
